A word on the pIC50: it is the IC50 on a negative log10 scale, so that one unit is a factor of ten. A lower pIC50 goes with a large IC50.

pIC50: −log10 of the molar value. Values joined by “and” are separate entries in the source; they are usually repeats but may differ in a detail not shown here. Identical values can stand only once.

The text below walks through data of patent publication US11576979B2, “Pyrrolobenzodiazepine prodrugs and antibody conjugates thereof” (GENENTECH, INC., priority 2016, dated 2023).

The nature of data set [1]: Disulfide cleavage by glutathione (GSH), LC/MS. The settings on record: 15 uM compound, 4 mM GSH, pH 7.0, 37 C. In kind it is physicochemical. The protocol:
(§1) For disulfide cleavage determination, the compounds were incubated at 15 μM with 0.2 mM cysteine or 4 mM GSH in 100 mM Tris buffer pH 7.0 containing 5% methanol at 37° C. Aliquots were taken at specified time points and the samples were analyzed by LC/MS on Sciex TripleTOF 5600 on a Hypersil Gold C18 column (100×2.1, 1.9 Thermo Scientific). The column was eluted by a gradient of buffer A (0.1% formic acid in 10 mM ammonium acetate) to buffer B (0.1% formic acid in 10 mM ammonium acetate in 90% acetonitrile), 5% B 0-0.5 min, 5-25% B 0.5-8 min, 25-75% B 8-13 min, and 75-95% B 13-13.5 min, 95% B 13.5-14.5 min, 95-5% B 14.5-15 min at 0.4 mL/min. All products were separated and characterized by LC/MS/MS in a positive ESI ion mode. All analytes had the protonated molecular MH+ as the major species with little source fragmentation. Full scan accurate mass peak areas were used to estimate relative abundance of each component.

A further data set relates to UACC-257. In words: CellTiter-Glo toxicity, 4 days (Example 9). In kind it is cell-based. The settings on record: 4 days of drug incubation, Table 7A. The method, then: (§2) The toxicity of various PBD monomer disulfide prodrugs and PBD dimer disulfide prodrugs was evaluated on UACC-257, Igrov-1 and A2058 cell lines. Cells were seeded in 384-well plate and treated with drug 24 hours later. After 4 days of drug incubation, the cell viability was determined using Promega CellTiter-Glo luminescent reagent, which measures ATP level (an indirect measure of cell number). The luminescent intensity was measured on PerkinElmer Envision reader. The relative cell viability was calculated by normalizing to non-drug treatment control and was graphed using KleidaGraph software package. IC50 value was determined as the concentration to obtain 50% of the maximum cell killing.

The next data set relates to A2058. In words: CellTiter-Glo toxicity, 4 days (Example 9). The settings on record: 4 days of drug incubation, Table 7A. The data set is classed as cell-based. The method, then:
as §2
(In general: ATP-based viability assays read luminescence as a measure of living cells.)

A further data set concerns Igrov-1. Nature of the data set: CellTiter-Glo toxicity, 4 days (Example 9). In kind it is cell-based. Conditions: 4 days of drug incubation, Table 7A. The protocol:
as §2

Data set [2] can be described thus: Disulfide cleavage by cysteine, LC/MS. The settings on record: 15 uM compound, 0.2 mM cysteine, pH 7.0, 37 C. In kind it is physicochemical. The method, then: as §1

For `C=C1C[C@H]2C(O)N(C(=O)OC[C@@H](C)SSC3COC3)c3cc(OC)c(OC)cc3C(=O)N2C1` (stereo partly shown) [PBD monomer disulfide prodrug 26], the “% Remaining at 24 h by GSH” value in data set [1] is listed as 0%. For the same compound, the pIC50 with UACC-257 (Homo sapiens, UACC-257, 96 h) was 6.48; with A2058 (Homo sapiens, A2058, 96 h), 7.07; with Igrov-1 (Homo sapiens, IGROV-1, 96 h), 6.61. For the same compound, the “% Remaining at 24 h by Cys” value in data set [2] was 29.1%.
Consider `C=C1C[C@H]2C(O)N(C(=O)OCC3(SSCC)CC3)c3cc(OC)c(OC)cc3C(=O)N2C1` (stereo partly shown) [PBD monomer disulfide prodrug 17], for which, in data set [1], the “% Remaining at 24 h by GSH” value was 0%. Also, the “% Remaining at 24 h by Cys” value in data set [2] was determined as 34.9%.
Regarding `C=C1C[C@H]2C(O)N(C(=O)OCC(C)(C)SSC(C)C)c3cc(OC)c(OC)cc3C(=O)N2C1` (stereo partly shown) [PBD monomer disulfide prodrug 10], the “% Remaining at 24 h by GSH” value in data set [1] came out at 88.5%. Also, the negative logarithm of the IC50 (pIC50) was 5.32 in the data set with UACC-257 (Homo sapiens, UACC-257, 96 h); 5.74 with A2058 (Homo sapiens, A2058, 96 h); 5.32 in the data set on Igrov-1 (Homo sapiens, IGROV-1, 96 h). The “% Remaining at 24 h by Cys” value in data set [2] stood at 99.4%.
Regarding `C=C1C[C@H]2C(O)N(C(=O)OCC3(SSCC)CCCCC3)c3cc(OC)c(OC)cc3C(=O)N2C1` (stereo partly shown) [PBD monomer disulfide prodrug 18], the “% Remaining at 24 h by GSH” value in data set [1] is given as 18.7%. In addition, in data set [2], the “% Remaining at 24 h by Cys” value stood at 75.3%.
Regarding `C=C1C[C@H]2C(O)N(C(=O)OCC3(SSCC)CCOC3)c3cc(OC)c(OC)cc3C(=O)N2C1` (single isomer, unassigned) [PBD monomer disulfide prodrug 30], the “% Remaining at 24 h by GSH” value in data set [1] is recorded as 0%. The pIC50 in the data set with UACC-257 was 6.51; with A2058, 6.97; in the data set with Igrov-1 it was 6.63. Moreover, the “% Remaining at 24 h by Cys” value in data set [2] is recorded as 47.1%.
Regarding `C=C1C[C@H]2C(O)N(C(=O)OCCSSCCC(=O)O)c3cc(OC)c(OC)cc3C(=O)N2C1` (stereo partly shown) [PBD monomer disulfide prodrug 27], the “% Remaining at 24 h by GSH” value in data set [1] is 0%. Besides, the pIC50 with UACC-257 (Homo sapiens, UACC-257, 96 h) was 6.03; in the data set on A2058 (Homo sapiens, A2058, 96 h), 6.58; in the data set with Igrov-1 (Homo sapiens, IGROV-1, 96 h) it was 6.02.
As to `C=C1C[C@H]2C(O)N(C(=O)OCCSSC(C)(C)C)c3cc(OC)c(OC)cc3C(=O)N2C1` (stereo partly shown) [PBD monomer disulfide prodrug 16], in data set [1], the “% Remaining at 24 h by GSH” value is given as 73.2%. The pIC50 is 4.71 in the data set with UACC-257 (Homo sapiens, UACC-257, 96 h); 5.25 with A2058 (Homo sapiens, A2058, 96 h); 4.73 in the data set with Igrov-1 (Homo sapiens, IGROV-1, 96 h). The “% Remaining at 24 h by Cys” value in data set [2] is 98.6%.
`C=C1C[C@H]2C(O)N(C(=O)OCC(C)(C)SSCC)c3cc(OC)c(OC)cc3C(=O)N2C1` (stereo partly shown) [PBD monomer disulfide prodrug 14]: in data set [1], the “% Remaining at 24 h by GSH” value is on record as 3%. The “% Remaining at 24 h by Cys” value in data set [2] is given as 68.1%.
For the compound `C=C1C[C@H]2C(O)N(C(=O)OCC3(SSCCO)CCOC3)c3cc(OC)c(OC)cc3C(=O)N2C1` (stereo partly shown) [PBD monomer disulfide prodrug 22], in data set [1], the “% Remaining at 24 h by GSH” value is given as 0%. For the same compound, the pIC50 in the data set on UACC-257 (Homo sapiens, UACC-257, 96 h) was 7.09; in the data set with A2058 (Homo sapiens, A2058, 96 h) it was 7.63; in the data set with Igrov-1 (Homo sapiens, IGROV-1, 96 h) it was 7.40. For the same compound, the “% Remaining at 24 h by Cys” value in data set [2] was 1.4%.
Consider `C=C1C[C@H]2C(O)N(C(=O)OCC(CN(C)C)SSC(C)C)c3cc(OC)c(OC)cc3C(=O)N2C1` (stereo partly shown) [PBD monomer disulfide prodrug 20], for which, in data set [1], the “% Remaining at 24 h by GSH” value came to 0%. Moreover, the “% Remaining at 24 h by Cys” value in data set [2] is given as 0%. Moreover, in data set [2] (4 h), the “% Remaining at 4 h by Cys” value was 34%.
`C=C1C[C@H]2C(O)N(C(=O)OC[C@@H](C)SSC(C)C)c3cc(OC)c(OC)cc3C(=O)N2C1` (stereo partly shown) [PBD monomer disulfide prodrug 15]: the pIC50 in the data set with UACC-257 (Homo sapiens, UACC-257, 96 h) is 5.82; in the data set on A2058 (Homo sapiens, A2058, 96 h), 6.52; with Igrov-1 (Homo sapiens, IGROV-1, 96 h), 6.03. For the same compound, the “% Remaining at 24 h by Cys” value in data set [2] was 99.2% and 90.8%.
In the case of `C=C1C[C@H]2C(O)N(C(=O)OC[C@@H](C)SSC3CCOCC3)c3cc(OC)c(OC)cc3C(=O)N2C1` (stereo partly shown) [PBD monomer disulfide prodrug 24], the “% Remaining at 24 h by GSH” value in data set [1] worked out at 0%. Besides, the pIC50 is 5.57 with UACC-257 (Homo sapiens, UACC-257, 96 h); 6.22 in the data set with A2058 (Homo sapiens, A2058, 96 h); 5.83 in the data set on Igrov-1 (Homo sapiens, IGROV-1, 96 h). Further, in data set [2], the “% Remaining at 24 h by Cys” value is 0.1%.
`C=C1C[C@H]2C(O)N(C(=O)OCCSSC3CCCC3)c3cc(OC)c(OC)cc3C(=O)N2C1` (stereo partly shown) [PBD monomer disulfide prodrug 28]: in data set [1], the “% Remaining at 24 h by GSH” value is on record as 0%. The pIC50 was 5.68 in the data set on UACC-257 (Homo sapiens, UACC-257, 96 h); 6.04 in the data set on A2058 (Homo sapiens, A2058, 96 h); 5.64 in the data set on Igrov-1 (Homo sapiens, IGROV-1, 96 h). For the same compound, the “% Remaining at 24 h by Cys” value in data set [2] worked out at 62.2%.
The like results for `C=C1C[C@H]2C(O)N(C(=O)OC[C@@H](C)SSC(C)(C)C)c3cc(OC)c(OC)cc3C(=O)N2C1` (stereo partly shown) [PBD monomer disulfide prodrug 13] were, in that order, 98.8%, less than 5.00, less than 5.00, less than 5.00 and 99.9%.
The like results for `C=C1C[C@H]2C(O)N(C(=O)OCC3(SSCCO)CCCC3)c3cc(OC)c(OC)cc3C(=O)N2C1` (stereo partly shown) [PBD monomer disulfide prodrug 8] were, in that order, 0.5%, 6.71, 7.33, 6.76 and 86.7%.
The like results for `C=C1C[C@H]2C(O)N(C(=O)OCc3ccc(SSC(C)C)cc3)c3cc(OC)c(OC)cc3C(=O)N2C1` (stereo partly shown) [PBD monomer disulfide prodrug 19] were, in that order, 0%, 6.83, 7.42, 7.11 and 4.4%.
Take `C=C1C[C@H]2C(O)N(C(=O)OCC3(SSCC)CCOC3)c3cc(OC)c(OC)cc3C(=O)N2C1` (single isomer, unassigned) [PBD monomer disulfide prodrug 11]: the “% Remaining at 24 h by GSH” value in data set [1] is reported as 0%. For the same compound, the pIC50 is 6.48 in the data set with UACC-257 (Homo sapiens, UACC-257, 96 h); 6.97 in the data set with A2058 (Homo sapiens, A2058, 96 h); 6.68 in the data set with Igrov-1 (Homo sapiens, IGROV-1, 96 h). The “% Remaining at 24 h by Cys” value in data set [2] was 14.4%.
For `C=C1C[C@H]2C(O)N(C(=O)OC[C@@H](C)SSCC)c3cc(OC)c(OC)cc3C(=O)N2C1` (stereo partly shown) [PBD monomer disulfide prodrug 12], in that order: 9.5%, 6.81, 7.51, 7.08 and 72.7%.
As to `C=C1C[C@H]2C(O)N(C(=O)OCC3(SSCC(=O)O)CCC3)c3cc(OC)c(OC)cc3C(=O)N2C1` (stereo partly shown) [PBD monomer disulfide prodrug 9], the “% Remaining at 24 h by GSH” value in data set [1] was determined as 1%. Further, the negative logarithm of the IC50 (pIC50) was 5.68 in the data set on UACC-257 (Homo sapiens, UACC-257, 96 h); 6.53 in the data set with A2058 (Homo sapiens, A2058, 96 h); 5.98 with Igrov-1 (Homo sapiens, IGROV-1, 96 h). Besides, the “% Remaining at 24 h by Cys” value in data set [2] is recorded as 81.1%.
For `C=C1C[C@H]2C(O)N(C(=O)OCC3(SSC(C)C)CC3)c3cc(OC)c(OC)cc3C(=O)N2C1` (stereo partly shown) [PBD monomer disulfide prodrug 7], in that order: 89.7%, less than 4.52, 4.96, less than 4.52 and 96.1%.
On to `C=C1C[C@H]2C(O)N(C(=O)OCC(COC)SSC(C)C)c3cc(OC)c(OC)cc3C(=O)N2C1` (stereo partly shown) [PBD monomer disulfide prodrug 21], for which, in data set [1], the “% Remaining at 24 h by GSH” value is reported as 0%. The “% Remaining at 24 h by Cys” value in data set [2] is recorded as 74.7%.
For the compound `C=C1C[C@H]2C(O)N(C(=O)OCCSSCCO)c3cc(OC)c(OC)cc3C(=O)N2C1` (stereo partly shown) [PBD monomer disulfide prodrug 29], in data set [1], the “% Remaining at 24 h by GSH” value is 0%. Moreover, the pIC50 is 6.85 with UACC-257 (Homo sapiens, UACC-257, 96 h); 7.54 in the data set with A2058 (Homo sapiens, A2058, 96 h); 7.24 with Igrov-1 (Homo sapiens, IGROV-1, 96 h). In data set [2], the “% Remaining at 24 h by Cys” value is given as 0%.
